Reference: the NIST ThermoML archive (doi:10.1016/j.fluid.2007.07.065)
Numbers after ± are expanded uncertainties.

conditions: Crystal; Heating/Cooling curves

Row | SMILES | Normal melting temperature
1 | CCC(=O)O [propanoic acid] | -20.61 ± 0.1 °C
2 | NC=O [formamide] | 2.39 ± 0.1 °C
3 | CC(=O)O [acetic acid] | 16.69 ± 0.1 °C
